Measurements taken from ChEMBL document CHEMBL1255445, “Evaluation of nucleoside hydrolase inhibitors for treatment of African trypanosomiasis” (Antimicrob Agents Chemother, 2010).
Activity calls are given as the source filed them. No rule for the calls is given here.

test system: Trypanosoma brucei brucei; experiment: Antitrypanosomal activity against suramin sensitive Trypanosoma brucei brucei Lister 427 assessed as reduction in parasite growth after 3 days by fluorometrically; format: functional, organism-based; conditions: Lister 427, 72 h

SMILES | IC50 [µM]
N=C(N)Nc1ccc(CN2C[C@H](O)[C@H](O)[C@H]2CO)cc1 | > 64
Cc1nc(-c2ccccc2)ncc1CN1C[C@H](O)[C@H](O)[C@H]1CO | > 64
OC[C@@H]1[C@@H](O)[C@@H](O)CN1Cc1cnc2ccccc2c1 | > 64
Cn1nnc2cc(CN3C[C@H](O)[C@H](O)[C@H]3CO)ccc21 | > 64
OC[C@@H]1[C@@H](O)[C@@H](O)CN1Cc1ccc(-n2cncn2)cc1 | > 64
O=[N+]([O-])c1ccc(CN2C[C@H](O)[C@H](O)[C@H]2CO)cc1 | > 64
O=[N+]([O-])c1cccc(CN2C[C@H](O)[C@H](O)[C@H]2CO)c1 | > 64
OC[C@@H]1[C@@H](O)[C@@H](O)CN1CCc1c[nH]c2ccccc12 | 31
Nc1ncccc1CN1C[C@H](O)[C@H](O)[C@H]1CO | > 64

Further lines, results first:

IC50 [µM] | SMILES
> 64 | OC[C@@H]1[C@@H](O)[C@@H](O)CN1Cc1ccc2cccnc2c1
> 64 | Cc1cc(N)c2cccc(CN3C[C@H](O)[C@H](O)[C@H]3CO)c2n1
> 64 | COc1ccc(CN2C[C@H](O)[C@H](O)[C@H]2CO)cn1
22 | Cc1cc(Cl)c2cccc(CN3C[C@H](O)[C@H](O)[C@H]3CO)c2n1
49 | OC[C@@H]1[C@@H](O)[C@@H](O)CN1Cc1ccc2cccc(O)c2n1
> 64 | COc1ccc2cccc(CN3C[C@H](O)[C@H](O)[C@H]3CO)c2n1
> 64 | OC[C@@H]1[C@@H](O)[C@@H](O)CN1Cc1ccc2ccccc2c1
> 64 | Nc1ccc2cccc(CN3C[C@H](O)[C@H](O)[C@H]3CO)c2n1

test system: Leishmania infantum; experiment: Antileishmanial activity against Leishmania infantum MHOM/MA/67/ITMAP263 intracellular amastigotes assessed as reduction in parasite growth after 3 days by fluorometrically; format: functional, organism-based; conditions: not given

SMILES | Activity
N=C(N)Nc1ccc(CN2C[C@H](O)[C@H](O)[C@H]2CO)cc1 | inactive
OC[C@@H]1[C@@H](O)[C@@H](O)CN1Cc1ccc2cccnc2c1 | inactive
Cc1cc(N)c2cccc(CN3C[C@H](O)[C@H](O)[C@H]3CO)c2n1 | inactive
COc1ccc(CN2C[C@H](O)[C@H](O)[C@H]2CO)cn1 | inactive
Cc1cc(Cl)c2cccc(CN3C[C@H](O)[C@H](O)[C@H]3CO)c2n1 | inactive
Cc1nc(-c2ccccc2)ncc1CN1C[C@H](O)[C@H](O)[C@H]1CO | inactive
OC[C@@H]1[C@@H](O)[C@@H](O)CN1Cc1cnc2ccccc2c1 | inactive
Cn1nnc2cc(CN3C[C@H](O)[C@H](O)[C@H]3CO)ccc21 | inactive
OC[C@@H]1[C@@H](O)[C@@H](O)CN1Cc1ccc2cccc(O)c2n1 | inactive
OC[C@@H]1[C@@H](O)[C@@H](O)CN1Cc1ccc(-n2cncn2)cc1 | inactive
O=[N+]([O-])c1ccc(CN2C[C@H](O)[C@H](O)[C@H]2CO)cc1 | inactive
O=[N+]([O-])c1cccc(CN2C[C@H](O)[C@H](O)[C@H]2CO)c1 | inactive
COc1ccc2cccc(CN3C[C@H](O)[C@H](O)[C@H]3CO)c2n1 | inactive
OC[C@@H]1[C@@H](O)[C@@H](O)CN1CCc1c[nH]c2ccccc12 | inactive
Nc1ncccc1CN1C[C@H](O)[C@H](O)[C@H]1CO | inactive
OC[C@@H]1[C@@H](O)[C@@H](O)CN1Cc1ccc2ccccc2c1 | inactive
Nc1ccc2cccc(CN3C[C@H](O)[C@H](O)[C@H]3CO)c2n1 | inactive

target: not listed separately; experiment: Inhibition of Trypanosoma vivax Inosine-adenosine-guanosine-nucleoside hydrolase; conditions: not given

SMILES | Ki [µM]
N=C(N)Nc1ccc(CN2C[C@H](O)[C@H](O)[C@H]2CO)cc1 | 7
Cc1nc(-c2ccccc2)ncc1CN1C[C@H](O)[C@H](O)[C@H]1CO | 43
OC[C@@H]1[C@@H](O)[C@@H](O)CN1Cc1cnc2ccccc2c1 | 20
Cn1nnc2cc(CN3C[C@H](O)[C@H](O)[C@H]3CO)ccc21 | 0.72
OC[C@@H]1[C@@H](O)[C@@H](O)CN1Cc1ccc(-n2cncn2)cc1 | 1.2
O=[N+]([O-])c1ccc(CN2C[C@H](O)[C@H](O)[C@H]2CO)cc1 | 7.5
O=[N+]([O-])c1cccc(CN2C[C@H](O)[C@H](O)[C@H]2CO)c1 | 23
OC[C@@H]1[C@@H](O)[C@@H](O)CN1CCc1c[nH]c2ccccc12 | 9.5
Nc1ncccc1CN1C[C@H](O)[C@H](O)[C@H]1CO | 121

Continued, values first:

Ki [µM] | SMILES
0.72 | OC[C@@H]1[C@@H](O)[C@@H](O)CN1Cc1ccc2cccnc2c1
71 | Cc1cc(N)c2cccc(CN3C[C@H](O)[C@H](O)[C@H]3CO)c2n1
32 | COc1ccc(CN2C[C@H](O)[C@H](O)[C@H]2CO)cn1
0.37 | Cc1cc(Cl)c2cccc(CN3C[C@H](O)[C@H](O)[C@H]3CO)c2n1
1 | OC[C@@H]1[C@@H](O)[C@@H](O)CN1Cc1ccc2cccc(O)c2n1
1.3 | COc1ccc2cccc(CN3C[C@H](O)[C@H](O)[C@H]3CO)c2n1
2 | OC[C@@H]1[C@@H](O)[C@@H](O)CN1Cc1ccc2ccccc2c1
8.4 | Nc1ccc2cccc(CN3C[C@H](O)[C@H](O)[C@H]3CO)c2n1

test system: Plasmodium falciparum; experiment: Antiparasitic activity against chloroquine-sensitive Plasmodium falciparum Ghana assessed as reduction in parasite growth after 3 days by fluorimetry; format: functional, organism-based; conditions: not given

SMILES | Activity
N=C(N)Nc1ccc(CN2C[C@H](O)[C@H](O)[C@H]2CO)cc1 | inactive
OC[C@@H]1[C@@H](O)[C@@H](O)CN1Cc1ccc2cccnc2c1 | inactive
Cc1cc(N)c2cccc(CN3C[C@H](O)[C@H](O)[C@H]3CO)c2n1 | inactive
COc1ccc(CN2C[C@H](O)[C@H](O)[C@H]2CO)cn1 | inactive
Cc1cc(Cl)c2cccc(CN3C[C@H](O)[C@H](O)[C@H]3CO)c2n1 | inactive
Cc1nc(-c2ccccc2)ncc1CN1C[C@H](O)[C@H](O)[C@H]1CO | inactive
OC[C@@H]1[C@@H](O)[C@@H](O)CN1Cc1cnc2ccccc2c1 | inactive
Cn1nnc2cc(CN3C[C@H](O)[C@H](O)[C@H]3CO)ccc21 | inactive
OC[C@@H]1[C@@H](O)[C@@H](O)CN1Cc1ccc2cccc(O)c2n1 | inactive
OC[C@@H]1[C@@H](O)[C@@H](O)CN1Cc1ccc(-n2cncn2)cc1 | inactive
O=[N+]([O-])c1ccc(CN2C[C@H](O)[C@H](O)[C@H]2CO)cc1 | inactive
O=[N+]([O-])c1cccc(CN2C[C@H](O)[C@H](O)[C@H]2CO)c1 | inactive
COc1ccc2cccc(CN3C[C@H](O)[C@H](O)[C@H]3CO)c2n1 | inactive
OC[C@@H]1[C@@H](O)[C@@H](O)CN1CCc1c[nH]c2ccccc12 | inactive
Nc1ncccc1CN1C[C@H](O)[C@H](O)[C@H]1CO | inactive
OC[C@@H]1[C@@H](O)[C@@H](O)CN1Cc1ccc2ccccc2c1 | inactive
Nc1ccc2cccc(CN3C[C@H](O)[C@H](O)[C@H]3CO)c2n1 | inactive

test system: Trypanosoma cruzi; experiment: Antitrypanosomal activity against Trypanosoma cruzi Tulahuen CL2 s-galactosidase strain assessed as reduction in parasite growth after 3 days by fluorometrically; format: functional, organism-based; conditions: not given

SMILES | Activity
N=C(N)Nc1ccc(CN2C[C@H](O)[C@H](O)[C@H]2CO)cc1 | inactive
OC[C@@H]1[C@@H](O)[C@@H](O)CN1Cc1ccc2cccnc2c1 | inactive
Cc1cc(N)c2cccc(CN3C[C@H](O)[C@H](O)[C@H]3CO)c2n1 | inactive
COc1ccc(CN2C[C@H](O)[C@H](O)[C@H]2CO)cn1 | inactive
Cc1cc(Cl)c2cccc(CN3C[C@H](O)[C@H](O)[C@H]3CO)c2n1 | inactive
Cc1nc(-c2ccccc2)ncc1CN1C[C@H](O)[C@H](O)[C@H]1CO | inactive
OC[C@@H]1[C@@H](O)[C@@H](O)CN1Cc1cnc2ccccc2c1 | inactive
Cn1nnc2cc(CN3C[C@H](O)[C@H](O)[C@H]3CO)ccc21 | inactive
OC[C@@H]1[C@@H](O)[C@@H](O)CN1Cc1ccc2cccc(O)c2n1 | inactive
OC[C@@H]1[C@@H](O)[C@@H](O)CN1Cc1ccc(-n2cncn2)cc1 | inactive
O=[N+]([O-])c1ccc(CN2C[C@H](O)[C@H](O)[C@H]2CO)cc1 | inactive
O=[N+]([O-])c1cccc(CN2C[C@H](O)[C@H](O)[C@H]2CO)c1 | inactive
COc1ccc2cccc(CN3C[C@H](O)[C@H](O)[C@H]3CO)c2n1 | inactive
OC[C@@H]1[C@@H](O)[C@@H](O)CN1CCc1c[nH]c2ccccc12 | inactive
Nc1ncccc1CN1C[C@H](O)[C@H](O)[C@H]1CO | inactive
OC[C@@H]1[C@@H](O)[C@@H](O)CN1Cc1ccc2ccccc2c1 | inactive
Nc1ccc2cccc(CN3C[C@H](O)[C@H](O)[C@H]3CO)c2n1 | inactive
